These results are taken from patent publication EP0370382A2, “Urea dipeptide derivatives with a renin-inhibiting activity, process to produce them, compositions containing them and their use” (HOECHST AKTIENGESELLSCHAFT, priority 1988, dated 1990).

The assay has as its target T1, Renin (Homo sapiens, UniProt P00797).
T1 construct: Das Blut wird von freiwilligen Probanden gewonnen; from tissue; host or cells: human blood plasma (EDTA) from volunteers
T1 sequence (P00797 67-406): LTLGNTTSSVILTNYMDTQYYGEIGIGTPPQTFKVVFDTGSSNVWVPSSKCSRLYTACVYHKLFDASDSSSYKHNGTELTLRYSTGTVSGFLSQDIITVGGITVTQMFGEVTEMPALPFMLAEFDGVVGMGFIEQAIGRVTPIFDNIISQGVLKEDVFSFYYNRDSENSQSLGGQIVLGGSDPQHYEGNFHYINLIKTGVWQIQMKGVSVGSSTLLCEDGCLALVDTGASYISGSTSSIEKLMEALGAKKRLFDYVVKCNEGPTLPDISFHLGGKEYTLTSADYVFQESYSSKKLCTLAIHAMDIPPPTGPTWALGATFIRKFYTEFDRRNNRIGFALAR
Put plainly: Renin inhibition in human plasma (angiotensin I release, radioimmunoassay). The format is biochemical. Conditions: 37°C, 1 h incubation, phosphate buffer pH 7.4, max. 1 % DMSO, read from % residual plasma renin activity vs. concentration, read-out: IC₅₀. The procedure:
Die Wirksamkeit von Renin-Hemmern kann durch in-vitro-Tests überprüft werden. Hierbei wird die Verminderung der Bildung von Angiotensin I in verschiedenen Systemen (Humanplasma, gereinigtes Humanrenin) gemessen.
Z.B. Humanplasma, welches sowohl Renin als auch Angiotensinogen enthält, wird bei 37°C mit der zu testenden Verbindung inkubiert. Dabei wird aus Angiotensinogen unter der Einwirkung von Renin Angiotensin I freigesetzt, das anschließend mit einem handelsüblichen Radioimmunoassay gemessen werden kann. Diese Angiotensin-Freisetzung wird durch Renin-Inhibitoren gehemmt.
Das Blut wird von freiwilligen Probanden gewonnen (ca. 0,5 l pro Person; Bluko-Entnahmegerät der Fa. ASID Bonz und Sohn, Unterschleißheim) und in teilweise evakuierten Flaschen unter Eiskühlung aufgefangen. Die Gerinnung wird durch Zugabe von EDTA (Endkonzentration 10 mM) verhindert. Nach dem Zentrifugieren (Rotor HS 4 (Sorvall), 3 500 Upm, 0-4°C, 15 min; wiederholen, falls erforderlich) wird das Plasma vorsichtig abpipettiert und in geeigneten Portionen bei -30°C eingefroren. Für den Test werden nur Plasmen mit ausreichend hoher Reninaktivität verwendet. Plasmen mit niedriger Reninaktivität werden durch eine Kältebehandlung (-4°C, 3 Tage) aktiviert (Prorenin → Renin).
Angiotensin I wird mit dem Renin-Maia®-Kit (Serono Diagnostics S.A., Coinsins, Schweiz) bestimmt. Die Inkubation des Plasmas wird nach der dort angegebenen Anleitung durchgeführt: Inkubationsansatz: 1000 µl Plasma (bei 0-4°C aufgetaut) 100 µl Phosphatpuffer (pH 7,4) Zusatz von 10⁻⁴ M Ramiprilat) 10 µl PMSF-Lösung 10 µl 0,1 % Genapol PFIC 12 µl DMSO bzw. Testpräparat
Die Testpräparate werden i.a. 10⁻² M in 100 % Dimethylsulfoxid (DMSO) gelöst und mit DMSO entsprechend verdünnt; der Inkubationsansatz enthält max. 1 % DMSO.
Die Ansätze werden in Eis gemischt und für 1 Stunde zur Inkubation in ein Wasserbad (37°C) gestellt. Aus einem zusätzlichen Ansatz ohne Inhibitor werden ohne weitere Inkubation insgesamt 6 Proben (jeweils 100 µl) zur Bestimmung des Ausgangs-Angiotensin I-Gehaltes des verwendeten Plasmas entnommen.
Die Konzentrationen der Testpräparate werden so gewählt, daß etwa der Bereich von 10-90 % Enzymhemmung abgedeckt ist (mindestens fünf Konzentrationen). Am Ende der Inkubationszeit werden aus jedem Ansatz drei 100 µl-Proben in vorgekühlten Eppendorf-Gefäßen auf Trockeneis eingefroren und bei ca. -25°C für die Angiotensin I-Bestimmung aufbewahrt (Mittelwert aus drei Einzelproben).
Es wird exakt der Gebrauchsanweisung des RIA-Kits (Renin-Maia®-Kit, Serono Diagnostics S.A., Coinsins, Schweiz) befolgt.
Die Eichkurve umfaßt den Bereich von 0,2 bis 25,0 ng Angiotensin I pro ml. Der Basis-Angiotensin I-Gehalt des Plasmas wird von allen Meßwerten abgezogen. Die Plasma-Renin-Aktivität (PRA) wird als ng Ang I/ml x Stunde angegeben. PRA-Werte in Gegenwart der Testsubstanzen werden auf einen Ansatz ohne Inhibitor (= 100 %) bezogen und als % Restaktivität angegeben. Aus der Auftragung von % Restaktivität gegen die Konzentration (M) des Testpräparates (logarithmische Skala) wird der IC₅₀-Wert abgelesen.

Structures are written as SMILES.

For the molecule `CCC[C@H](NC(=O)[C@H](Cc1ccccc1)NC(=O)NC(C)(C)C)C(=O)N[C@@H](CC1CCCCC1)[C@H](O)CCCc1ccccn1` [Beispiel 9, 1-Cyclohexyl-6-(2-pyridyl)-2S-(N-(tert.butylaminocarbonyl-Phe-Nva)-amino)-3R-hexanol], the IC50 turned out to be 6500 nM. Regarding `CCC[C@H](NC(=O)[C@H](Cc1ccccc1)NC(=O)NCC(C)(C)C)C(=O)N[C@@H](CC1CCCCC1)[C@@H](O)CCCc1ccccn1` [Beispiel 3, 1-Cyclohexyl-6-(2-pyridyl)-2S-(N-(2,2-dimethylpropylaminocarbonyl-Phe-Nva)-amino)-3S-hexanol], the IC50 stood at 900 nM.

Take `CC(C)(C)NC(=O)N[C@@H](Cc1ccccc1)C(=O)N[C@@H](Cc1c[nH]cn1)C(=O)N[C@@H](CC1CCCCC1)[C@H](O)CCCc1ccccn1` [Beispiel 10, 1-Cyclohexyl-6-(2-pyridyl)-2S-(N-(tert.butylaminocarbonyl-Phe-His)-amino)-3R-hexanol]: the IC50 was above 1000 nM.

In the case of `CCC[C@H](NC(=O)[C@H](Cc1ccccc1)NC(=O)NC(C)(C)C)C(=O)N[C@@H](CC1CCCCC1)[C@@H](O)CCCc1ccccn1` [Beispiel 6, 1-Cyclohexyl-6-(2-pyridyl)-2S-(N-(tert.butylaminocarbonyl-Phe-Nva)-amino)-3S-hexanol], the IC50 was 400 nM. The value for `CCC[C@H](NC(=O)[C@H](Cc1ccccc1)NC(=O)NC(C)(C)C(=O)O)C(=O)N[C@@H](CC1CCCCC1)[C@@H](O)CCCc1ccccn1` [Beispiel 29, 1-Cyclohexyl-6-(2-pyridyl)-2S-[N-[(1-carboxy-1-methylethylaminocarbonyl)-Phe-Nva]-amino]-3S-hexanol] was 650 nM; that for `CCC[C@H](NC(=O)[C@H](Cc1ccccc1)NC(=O)NCC)C(=O)N[C@@H](CC1CCCCC1)[C@@H](O)CCCc1ccccn1` [Beispiel 4, 1-Cyclohexyl-6-(2-pyridyl)-2S-(N-(ethylaminocarbonyl-Phe-Nva)-amino)-3S-hexanol] was 380 nM.

For the molecule `CCNC(=O)N[C@@H](Cc1ccccc1)C(=O)N[C@@H](Cc1c[nH]cn1)C(=O)N[C@@H](CC1CCCCC1)[C@@H](O)CCCc1ccccn1` [Beispiel 1, 1-Cyclohexyl-6-(2-pyridyl)-2S-(N-(ethylaminocarbonyl-Phe-His)-amino)-3S-hexanol], the IC50 was determined as 2000 nM. Regarding `CCC[C@H](NC(=O)[C@H](Cc1ccccc1)NC(=O)NC(C)C)C(=O)N[C@@H](CC1CCCCC1)[C@H](O)CCCc1ccccn1` [Beispiel 12, 1-Cyclohexyl-6-(2-pyridyl)-2S-(N-(isopropylaminocarbonyl-Phe-Nva)-amino)-3R-hexanol], the IC50 worked out at 5500 nM. The result for `CCC[C@H](NC(=O)[C@H](Cc1ccccc1)NC(=O)NC(C)C)C(=O)N[C@@H](CC1CCCCC1)[C@@H](O)CCCc1ccccn1` [Beispiel 2, 1-Cyclohexyl-6-(2-pyridyl)-2S-(N-(isopropylaminocarbonyl-Phe-Nva)-amino)-3S-hexanol] reads 620 nM; that for `CCC[C@H](NC(=O)[C@H](Cc1ccc(OC)cc1)NC(=O)NC(C)(C)C)C(=O)N[C@@H](CC1CCCCC1)[C@@H](O)CCCc1ccccn1` [Beispiel 8], above 10000 nM; that for `CCC[C@H](NC(=O)[C@H](Cc1cccs1)NC(=O)NC(C)(C)C)C(=O)N[C@@H](CC1CCCCC1)[C@@H](O)CCCc1ccccn1` [Beispiel 7, 1-Cyclohexyl-6-(2-pyridyl)-2S-(N-(tert.butylaminocarbonyl-Thi-Nva)-amino)-3S-hexanol], 260 nM. In the case of `CC(C)(C)NC(=O)N[C@@H](Cc1ccccc1)C(=O)N[C@@H](Cc1c[nH]cn1)C(=O)N[C@@H](CC1CCCCC1)[C@@H](O)CCCc1ccccn1` [Beispiel 5], the IC50 turned out to be 1000 nM. The result for `CCC[C@H](NC(=O)[C@H](Cc1ccccc1)NC(=O)NCC(C)(C)N)C(=O)N[C@@H](CC1CCCCC1)[C@@H](O)CCCc1ccccn1` [Beispiel 13, 1-Cyclohexyl-6-(2-pyridyl)-2S-(N-(2-amino-2-methylpropylaminocarbonyl-Phe-Nva)-amino)-3S-hexanol] reads 340 nM; that for `CC(C)(C)NC(=O)N[C@@H](Cc1ccccc1)C(=O)N[C@@H](CC(N)=O)C(=O)N[C@@H](CC1CCCCC1)[C@@H](O)CCCc1ccccn1` [Beispiel 14], 8000 nM. The value for `CCNC(=O)N[C@@H](Cc1ccccc1)C(=O)N[C@@H](Cc1c[nH]cn1)C(=O)N[C@@H](CC1CCCCC1)[C@H](O)CCCc1ccccn1` [Beispiel 11, 1-Cyclohexyl-6-(2-pyridyl)-2S-(N-(ethylaminocarbonyl-Phe-His)-amino)-3R-hexanol] was 900 nM.
